According to patent US20130012451A1, “COMPOSITIONS AND METHODS FOR INHIBITING MMP-9-MEDIATED CELL MIGRATION” (The Research Foundation of State University of New York, priority 2009, published 2013):
“Also recorded” adds a separate entry of the source. Like-named read-outs stand apart in the source and are kept apart here. Where no end group is shown, it is not given here.

What was measured:
CD44/MMP-9 heterodimer = molecular target: T1, CD44/MMP-9 heterodimer (Homo sapiens, UniProt P16070); assay: Co-immunoprecipitation assay of CD44/MMP-9 complex formation in transfected COS-1 cells; assay type: cell-based; conditions: COS-1 cells transfected with CD44 and MMP-9 cDNAs, peptides for 30 minutes
T1 construct: The MMP-9 cDNA containing the open reading frame of MMP-9 was amplified by a PCR approach; expressed in transfected cells; host or cells: COS-1 monkey kidney epithelial cells
From the text: (§1) Procedures for Gelatin Substrate Zymography, Immunoblotting, Immunoprecipitation, Transwell Chamber Cell Migration and Phagokinetic Cell Migration Assays
(§2) Basic protocols for these techniques have been described previously (Cao et al., 1996; Dufour et al., 2008).
To further examine the importance of cross-talk between CD44 and MMP-9 in cell migration, an 8-amino acids peptide (SRPQGPFL) (SEQ ID NO: 2) was synthesized to mimic the outermost β-strand of the first blade of the MMP-9 PEX domain (IS4 peptide). As a control, a scrambled peptide with the same amino acids but rearranged in different order (GLSQPRFP) (SEQ ID NO: 35) was synthesized. COS-1 cells transfected with CD44 and MMP-9 cDNAs were treated with IS4 and IS4 scrambled peptides for 30 minutes followed by monitoring complex formations between CD44 and MMP-9 using a co-immunoprecipitation assay.

MMP-9 homodimer = molecular target: T2, MMP-9 homodimer (Homo sapiens, UniProt P14780); assay: Co-immunoprecipitation assay of MMP-9 homodimer formation in transfected COS-1 cells; assay type: cell-based
T2 construct: The MMP-9 cDNA containing the open reading frame of MMP-9 was amplified by a PCR approach; by a site-directed mutagenesis approach using wild type MMP-9 as a template; expressed in transfected cells; host or cells: COS-1 monkey kidney epithelial cells
From the text: as §1, §2
COS-1 cells co-transfected with HA- and Myc-tagged MMP-9 cDNAs were then employed to examine homodimer formation using a co-immunoprecipitation approach. The HA-tagged MMP-9 proteins in the conditioned medium of transfected COS-1 cells were immunoprecipitated with anti-HA antibodies followed by a western blotting probed by anti-Myc antibodies. […] To further confirm this observation, the reciprocal co-immunoprecipitation was performed. Anti-Myc antibodies were employed to precipitate Myc-tagged MMP-9 complexes in the conditioned medium of co-transfected COS-1 cells followed by western blotting using anti-HA antibodies. This reciprocal approach confirms that MMP-9 does form a homodimer in the condition medium of transfected COS-1 cells.
(§3) One approach to blunt MMP-9 induced cell migration might be to target the herein discovered homodimer formation, which is a prerequisite for MMP-9-induced cell migration. Given the observation that the outermost β-strand of the fourth blade of the MMP-9 PEX domain is required for MMP-9 homodimerization formation, an 8-amino acids peptide (NQVDQVGY) (SEQ ID NO: 1) was synthesized to mimic the outer β-strand of blade IV of MMP-9 PEX domain (IVS4 peptide). As a control, a scrambled peptide with the same amino acids but rearranged in different order (VQYDNGQV) (SEQ ID NO: 51) was designed and synthesized. To test if IVS4 peptide blocked MMP-9 homodimer formation, COS-1 cells transfected with MMP-9 cDNA were treated with peptides for 30 minutes followed by a co-immunoprecipitation assay. […] To examine the potential therapeutic effect of this peptide, a transwell migration assay was performed. […] This IVS4 peptide, however, had no effect on cell migration induced by MT1-MMP, an integral membrane matrix metalloproteinase capable of stimulating cell migration (Cao et al., 2004).

[1] = system: cell migration induced by MT1-MMP; assay: Transwell migration assay, cell migration induced by MT1-MMP; assay type: cell-based
From the text: as §3

HT1080 cells = assay: Transwell chamber migration assay, HT1080 cells expressing endogenous MMP-9; assay type: cell-based, human; conditions: 100 μM peptide, 6 h at 37° C.
Method: Human fibrosarcoma HT1080 cells are highly invasive and metastatic. […] Since this cell line produces endogenous MMP-9, the inventors sought to test if the MMP-9 IS4 and IVS4 peptides can be used to interfere with function of endogenous MMP-9. To this end, HT1080 cells were employed and cell migratory ability was evaluated using a Transwell chamber migration assay (FIG. 11). The cells were incubated with 100 μM of IS4 peptide (SRPQGPFL) (SEQ ID NO: 2), IS4 scrambled peptide (GLSQPRFP) (SEQ ID NO: 35), IVS4 peptide (NQVDQVGY) (SEQ ID NO: 1), IVS4 scrambled peptide (VQYDNGQV) (SEQ ID NO: 51), and a combination of IS4 and IVS4 peptides for 6 h at 37° C. 1% DMSO was used as a vehicle control. Migrated cells were microscopically counted. Each data point was performed in triplicate and the experiment was repeated three times (*P<0.05). […] While not limiting the invention to any particular mechanism, it is the inventors' view that this is potentially because both inhibitory peptides target the same molecule.

[2] = system: MMP-9-induced cell migration of transfected COS-1 cells; conditions: for MMP-9-induced cell migration: transwell chamber migration assay for 6 hours, MMP-9 transfected COS-1 cells
Method: (P-values reflect comparison with MMP-9 transfected cells: *P<0.05). […] COS-1 cells transfected with an empty vector or MMP-9 cDNAs were examined by a transwell chamber migration assay for 6 hours in the presence of DMSO control, specific and scramble peptides at different concentration. Each data point was performed in triplicate and the experiments was repeated three times (*P<0.05).
Transfection of plasmid DNA in COS-1 cells was achieved using polyethylenimine (Polysciences) or Transfectin™ reagents (Bio-Rad) and the transfected cells were incubated for 48 h at 37° C. followed by biochemical and biological assays.

[3] = system: MMP9/PEXMMP-2/Myc transfected COS-1 cells; assay: Transwell migration assay, COS-1 cells transfected with MMP9/PEXMMP-2/Myc; assay type: cell-based, monkey; conditions: co-expression of TIMP
From the text: FIG. 3. TIMP-1 interferes with MMP-9 homodimerization. (A) TIMP-1, but not TIMP-2 interferes with MMP-9 dimerization in transfected COS-1 cells examined by a co-immunoprecipitation assay for conditioned medium and cell lysates (upper and middle panels), and immunoblotting for α/β tubulin (lower panel, loading control). (B) TIMP-1 co-precipitated with MMP-9 in both the lysate and the conditioned medium of transfected COS-1 cells examined by a co-immunoprecipitation assay. (C) MMP-9 chimera substituting the PEX domain with the corresponding MMP-2 interacts with TIMP-2 in transfected COS-1 cells, but not wild type MMP-9. (D) COS-1 cells transfected with corresponding cDNAs were subjected to a transwell migration assay. Three triplicated repeats were performed for each transfection. *P<0.05.
The role of TIMP-1 in interfering with MMP-9 homodimer formation remains controversial (Goldberg et al., 1992; Olson et al., 2000). This discrepancy led us to reevaluate the specific interference of TIMP-1 on proMMP-9 homodimer formation using the biochemical approach described above. […]

T1 sequence (P16070 21-742, one chain of several): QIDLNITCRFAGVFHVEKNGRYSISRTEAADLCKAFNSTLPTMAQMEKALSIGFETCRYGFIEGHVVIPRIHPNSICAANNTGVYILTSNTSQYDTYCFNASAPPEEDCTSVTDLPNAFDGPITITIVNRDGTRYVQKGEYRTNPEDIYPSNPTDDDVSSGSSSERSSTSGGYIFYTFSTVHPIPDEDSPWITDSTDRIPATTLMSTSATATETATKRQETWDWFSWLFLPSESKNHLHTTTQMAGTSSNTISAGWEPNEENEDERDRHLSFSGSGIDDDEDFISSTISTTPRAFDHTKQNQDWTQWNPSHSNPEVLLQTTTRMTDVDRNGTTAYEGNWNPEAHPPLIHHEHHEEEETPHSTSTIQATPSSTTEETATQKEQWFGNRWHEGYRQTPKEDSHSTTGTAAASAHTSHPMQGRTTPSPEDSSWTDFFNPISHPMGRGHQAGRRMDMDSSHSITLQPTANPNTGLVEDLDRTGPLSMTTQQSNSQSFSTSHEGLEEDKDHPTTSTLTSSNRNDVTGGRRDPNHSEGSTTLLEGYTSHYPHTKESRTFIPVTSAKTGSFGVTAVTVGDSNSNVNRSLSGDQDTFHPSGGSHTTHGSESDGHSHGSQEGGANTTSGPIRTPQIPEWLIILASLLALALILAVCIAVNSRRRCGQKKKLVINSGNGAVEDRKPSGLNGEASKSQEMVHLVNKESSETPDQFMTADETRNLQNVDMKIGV
T2 sequence (P14780 20-707 limits assumed): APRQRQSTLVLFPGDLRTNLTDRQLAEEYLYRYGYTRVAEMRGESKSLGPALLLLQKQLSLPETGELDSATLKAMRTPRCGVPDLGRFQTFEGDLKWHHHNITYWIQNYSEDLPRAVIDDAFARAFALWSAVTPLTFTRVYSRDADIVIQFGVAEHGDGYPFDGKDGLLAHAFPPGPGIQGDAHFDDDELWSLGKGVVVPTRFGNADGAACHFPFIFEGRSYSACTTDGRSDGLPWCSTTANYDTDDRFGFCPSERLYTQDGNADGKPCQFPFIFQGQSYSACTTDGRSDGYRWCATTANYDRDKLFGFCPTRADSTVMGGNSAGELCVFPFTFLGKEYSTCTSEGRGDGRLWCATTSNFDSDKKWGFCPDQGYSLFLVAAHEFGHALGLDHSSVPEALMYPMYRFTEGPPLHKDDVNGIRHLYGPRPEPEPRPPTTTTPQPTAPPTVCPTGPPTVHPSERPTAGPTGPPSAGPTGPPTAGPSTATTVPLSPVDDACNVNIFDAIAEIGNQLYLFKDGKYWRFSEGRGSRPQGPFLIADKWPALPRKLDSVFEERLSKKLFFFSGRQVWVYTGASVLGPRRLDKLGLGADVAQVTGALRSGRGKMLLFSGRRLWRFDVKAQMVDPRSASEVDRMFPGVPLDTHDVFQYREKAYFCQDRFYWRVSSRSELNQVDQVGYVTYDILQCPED

GLSQPRFP [IS4 scrambled peptide, control scrambled peptide with the same amino acids as IS4 rearranged in different order, reference compound]
CD44/MMP-9 heterodimer formation (CD44/MMP-9 heterodimer): minimal effect

NQVDQVGY [IVS4 peptide, NQVDQVGY]
MMP-9 homodimer formation (MMP-9 homodimer; COS-1 cells transfected with MMP-9 cDNA, treated with peptides for 30 minutes, co-immunoprecipitation): efficiently blocked
MMP-9 homodimer formation (MMP-9 homodimer; COS-1 cells transfected with MMP-9 cDNA, treated with peptides for 30 minutes, co-immunoprecipitation, listed as IVS4): abrogates
cell migration induced by MT1-MMP [1]: no effect
HT1080 cell migration (HT1080 cells): significantly reduced; also recorded: efficiently reduced
IC50 [2]: 50 µM
MMP-9-induced cell migration [2]: inhibited MMP-9-induced cell migration in a dose-dependent manner
MMP-9-induced cell migration ([2]; listed as IVS4): efficiently reduced
MMP-9-induced cell migration ([2]; listed as IVS4 peptides): Dose dependent inhibition

SRPQGPFL [IS4 peptide, SRPQGPFL]
CD44/MMP-9 heterodimer formation (CD44/MMP-9 heterodimer): interferes
HT1080 cell migration (HT1080 cells; listed as IS4): significantly reduced; also recorded: efficiently reduced
IC50 [2]: 12 µM
MMP-9-induced cell migration [2]: dose-dependent inhibition
MMP-9-induced cell migration ([2]; listed as IS4): efficiently reduced
MMP-9-induced cell migration ([2]; listed as IS4 peptides): Dose-dependent inhibition

TIMP-1: tissue inhibitor of metalloproteinases, co-expressed from cDNA in COS-1 cells
MMP-9 homodimer formation (MMP-9 homodimer; co-expression of TIMP cDNA with proMMP-9/Myc and proMMP-9/HA cDNAs in COS-1 cells, conditioned media and cell lysate): interferes; also recorded: blocking
MMP9/PEXMMP-2/Myc enhancement of COS-1 cell migration [3]: no apparent effect; also recorded: did not significantly inhibit
